This test deals with T1, human Nav1.8 (hNav1.8) ion channel (Homo sapiens, UniProt Q9Y5Y9).
T1 construct: expressed in transfected cells
T1 sequence (Q9Y5Y9 whole entry): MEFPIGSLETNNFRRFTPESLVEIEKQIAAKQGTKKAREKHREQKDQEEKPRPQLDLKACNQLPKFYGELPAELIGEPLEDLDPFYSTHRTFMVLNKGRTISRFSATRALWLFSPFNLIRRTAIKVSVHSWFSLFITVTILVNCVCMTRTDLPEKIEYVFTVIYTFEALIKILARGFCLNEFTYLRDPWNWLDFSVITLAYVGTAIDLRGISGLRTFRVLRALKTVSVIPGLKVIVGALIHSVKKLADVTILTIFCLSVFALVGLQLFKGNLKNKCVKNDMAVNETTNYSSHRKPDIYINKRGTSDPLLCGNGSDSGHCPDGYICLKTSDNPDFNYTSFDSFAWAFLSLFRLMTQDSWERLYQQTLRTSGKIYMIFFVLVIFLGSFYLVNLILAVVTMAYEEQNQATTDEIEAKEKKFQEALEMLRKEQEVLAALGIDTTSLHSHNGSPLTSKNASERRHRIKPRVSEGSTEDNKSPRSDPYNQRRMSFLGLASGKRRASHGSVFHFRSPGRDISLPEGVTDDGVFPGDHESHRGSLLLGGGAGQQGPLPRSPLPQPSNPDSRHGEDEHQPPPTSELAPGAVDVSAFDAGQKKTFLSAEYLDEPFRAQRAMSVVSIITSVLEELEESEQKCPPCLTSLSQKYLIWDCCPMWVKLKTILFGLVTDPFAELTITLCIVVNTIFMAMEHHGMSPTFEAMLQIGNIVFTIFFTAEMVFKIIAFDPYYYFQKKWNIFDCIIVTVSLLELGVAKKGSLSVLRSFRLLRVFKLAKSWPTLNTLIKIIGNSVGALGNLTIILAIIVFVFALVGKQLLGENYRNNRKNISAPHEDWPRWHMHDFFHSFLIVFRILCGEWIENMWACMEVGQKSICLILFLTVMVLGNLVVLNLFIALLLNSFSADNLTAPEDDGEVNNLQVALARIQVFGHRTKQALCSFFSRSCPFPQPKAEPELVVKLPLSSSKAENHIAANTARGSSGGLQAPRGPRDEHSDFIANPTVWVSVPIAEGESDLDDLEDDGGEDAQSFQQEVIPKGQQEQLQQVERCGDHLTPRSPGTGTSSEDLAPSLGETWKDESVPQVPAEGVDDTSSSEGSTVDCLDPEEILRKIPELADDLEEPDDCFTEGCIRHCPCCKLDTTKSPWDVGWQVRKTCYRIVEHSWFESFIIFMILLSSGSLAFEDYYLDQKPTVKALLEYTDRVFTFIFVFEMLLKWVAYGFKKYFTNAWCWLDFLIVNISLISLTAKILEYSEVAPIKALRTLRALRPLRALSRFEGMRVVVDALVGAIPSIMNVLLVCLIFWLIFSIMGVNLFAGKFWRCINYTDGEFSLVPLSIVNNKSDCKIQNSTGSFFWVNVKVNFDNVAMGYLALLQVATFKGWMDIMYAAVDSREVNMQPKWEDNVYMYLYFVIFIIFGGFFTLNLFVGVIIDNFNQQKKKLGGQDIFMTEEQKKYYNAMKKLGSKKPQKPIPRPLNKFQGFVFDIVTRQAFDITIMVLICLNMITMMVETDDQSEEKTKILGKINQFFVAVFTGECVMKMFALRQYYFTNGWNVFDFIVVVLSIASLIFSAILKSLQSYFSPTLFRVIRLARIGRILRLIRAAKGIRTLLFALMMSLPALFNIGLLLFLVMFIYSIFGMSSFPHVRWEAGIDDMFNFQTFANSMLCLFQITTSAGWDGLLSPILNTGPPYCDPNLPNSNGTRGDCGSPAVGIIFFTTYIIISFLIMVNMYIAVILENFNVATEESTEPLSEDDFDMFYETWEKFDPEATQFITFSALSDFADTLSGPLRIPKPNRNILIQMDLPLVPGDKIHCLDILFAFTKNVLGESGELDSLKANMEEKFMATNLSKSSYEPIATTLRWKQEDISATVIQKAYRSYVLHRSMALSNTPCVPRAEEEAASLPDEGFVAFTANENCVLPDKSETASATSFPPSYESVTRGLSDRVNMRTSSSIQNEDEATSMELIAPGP
Description: Inhibition of human Nav1.8 stably expressed in SH-SY-5Y cells (membrane potential dye fluorescence assay). Particulars: SH-SY-5Y hNav1.8 cells; FLIPR membrane potential dye; 10 μM pyrethroid, 250 nM TTX; test concentration range 100 μM-0.05 μM; read-out: hNav1.8 IC50. Type of test: cell-based. The procedure: Inhibition of Human Nav1.8 stably expressed in SH-SY-5Y Cells
A SH-SY-5Y neuroblastoma cell line stably expressing the human Nav1.8 (hNav1.8) ion channel was constructed. This cell line has been used to develop a medium to high throughput assay for determining the ability of test compounds to inhibit membrane depolarisation mediated via the hNav1.8 channel.
SH-SY-5Y hNav1.8 are grown in adherent monolayer culture using 50:50 Ham's F-12/EMEM tissue culture medium supplemented with 15% (v/v) foetal bovine serum; 2 mM L-glutamine, 1% NEAR and 600 μg·ml^−1 Geneticin sulphate. Cells are removed from the tissue culture flask using trypsin/EDTA and re-plated into black walled, clear bottom 96-well assay plates at 50,000 cells·well^−1 24 hours prior to assay.
On the day of assay the cell assay plates are washed to remove cell culture medium using a sodium free assay buffer (145 mM tetramethyl ammonium chloride; 2 mM calcium chloride; 0.8 mM magnesium chloride hexahydrate; 10 mM HEPES; 10 mM glucose; 5 mM potassium chloride, pH 7.4). Fluorescent membrane potential dye solution (FLIPR™ membrane potential dye, Molecular Devices Corporation), containing 10 μM of a pyrethroid to prevent channel inactivation and 250 nM tetrodotoxin (TTX) to reduce interference from TTX-sensitive sodium channels present in the cell line. Test compound, initially dissolved in dimethyl sulfoxide but further diluted in sodium free buffer, is added to achieve the final test concentration range of 100 μM-0.05 μM.
Cell plates are incubated for 30 minutes at room temperature to allow equilibration of dye and test compound. Plates are then transferred to a fluorescence plate reader for fluorescence measurement using an excitation wavelength of 530 nm whilst measuring fluorescence emission at 565 nm. Baseline fluorescence levels are first determined before the addition of a sodium containing buffer (220 mM sodium chloride; 2 mM calcium chloride; 0.8 mM magnesium chloride hexahydrate; 10 mM HEPES; 10 mM glucose; 5 mM potassium chloride. pH 7.4) to cause membrane depolarisation in those cells where channel block has not been effected (final sodium concentration=72.5 mM). Membrane depolarisation is registered by an increase in fluorescence emission at 565 nm.
The change in fluorescence seen in each test well upon the addition of sodium containing buffer is calculated relative to the baseline fluorescence for that well. This figure is then used for calculating the IC50 for each test compound.
Take `Cc1ccccc1C(C)N1CC2CC1CN2C(=O)Nc1ccc(OCCc2scnc2C)cc1` (stereo not shown) [Example 42, 5-(1-o-Tolyl-ethyl)-2,5-diaza-bicyclo[2.2.1]heptane-2-carboxylic acid {4-[2-(4-methyl-thiazol-5-yl)-ethoxy]-phenyl}-amide]: the IC50 (usually the concentration needed to halve the response being measured) came out at 2100 nM.

On to `Cc1ccccc1C(C)N1CC2CC1CN2C(=O)Nc1ccc(OCCn2ccnc2)cc1` (stereo not shown) [Example 43, 5-(1-o-Tolyl-ethyl)-2,5-diaza-bicyclo[2.2.1]heptane-2-carboxylic acid [4-(2-imidazol-1-yl-ethoxy)-phenyl]-amide], for which the IC50 is no less than 30000 nM. Under `Cc1ccccc1C(C)N1CC2CC1CN2C(=O)Nc1ccc(OCCN2CCOCC2)cc1` (stereo not shown) [Example 44, 5-(1-o-Tolyl-ethyl)-2,5-diaza-bicyclo[2.2.1]heptane-2-carboxylic acid [4-(2-morpholin-4-yl-ethoxy)-phenyl]-amide] stands 26800 nM. As to `Cc1ccccc1C(C)N1CC2CC1CN2C(=O)Nc1ccc(OCCc2ccccn2)cc1` (stereo not shown) [Example 45, 5-(1-o-Tolyl-ethyl)-2,5-diaza-bicyclo[2.2.1]heptane-2-carboxylic acid [4-(2-pyridin-2-yl-ethoxy)-phenyl]-amide], the IC50 worked out at 3270 nM. Under `CC(c1ccc(F)cc1)N1CC2CC1CN2C(=O)Nc1ccc(C(F)(F)F)cc1` (stereo not shown) [Example 46, 5-[1-(4-Fluoro-phenyl)-ethyl]-2,5-diaza-bicyclo[2.2.1]heptane-2-carboxylic acid (4-trifluoromethyl-phenyl)-amide] stands 1310 nM. The result for `CC(c1ccc(F)cc1)N1CC2CC1CN2C(=O)Nc1cccc(C(F)(F)F)c1` (stereo not shown) [Example 47, 5-[1-(4-Fluoro-phenyl)-ethyl]-2,5-diaza-bicyclo[2.2.1]heptane-2-carboxylic acid (3-trifluoromethyl-phenyl)-amide] reads 2610 nM; that for `CC(c1ccc(F)cc1)N1CC2CC1CN2C(=O)Nc1ccc(Oc2ccccc2)cc1` (stereo not shown) [Example 48, 5-[1-(4-Fluoro-phenyl)-ethyl]-2,5-diaza-bicyclo[2.2.1]heptane-2-carboxylic acid (4-phenoxy-phenyl)-amide], 420 nM; that for `CC(c1ccc(F)cc1)N1CC2CC1CN2C(=O)Nc1cccc(Oc2ccccc2)c1` (stereo not shown) [Example 49, 5-[1-(4-Fluoro-phenyl)-ethyl]-2,5-diaza-bicyclo[2.2.1]heptane-2-carboxylic acid (3-phenoxy-phenyl)-amide], 1080 nM. Consider `CC(c1ccc(F)cc1)N1CC2CC1CN2C(=O)Nc1cccc(C(F)(F)F)c1` (stereo not shown) [Example 50, 5-[1-(4-Fluoro-phenyl)-ethyl]-2,5-diaza-bicyclo[2.2.1]heptane-2-carboxylic acid (3-trifluoromethyl-phenyl)-amide], for which the IC50 was determined as 2620 nM. The result for `CC(c1ccc(F)cc1)N1CC2CC1CN2C(=O)Nc1ccc(Oc2ccccc2)cc1` (stereo not shown) [Example 51, 5-[1-(4-Fluoro-phenyl)-ethyl]-2,5-diaza-bicyclo[2.2.1]heptane-2-carboxylic acid (4-phenoxy-phenyl)-amide] reads 410 nM; that for `CC(c1ccc(F)cc1)N1CC2CC1CN2C(=O)Nc1cccc(Oc2ccccc2)c1` (stereo not shown) [Example 52, 5-[1-(4-Fluoro-phenyl)-ethyl]-2,5-diaza-bicyclo[2.2.1]heptane-2-carboxylic acid (3-phenoxy-phenyl)-amide], 900 nM. Under `CC(c1ccc(F)cc1)N1CC2CC1CN2C(=O)Nc1ccc(C(F)(F)F)cc1` (stereo not shown) [Example 53, 5-[1-(4-Fluoro-phenyl)-ethyl]-2,5-diaza-bicyclo[2.2.1]heptane-2-carboxylic acid (4-trifluoromethyl-phenyl)-amide] stands 2500 nM. The result for `CC(c1ccccc1C(F)(F)F)N1CC2CC1CN2C(=O)Nc1cccc(C(F)(F)F)c1` (stereo not shown) [Example 55, 5-[1-(2-Trifluoromethyl-phenyl)-ethyl]-2,5-diaza-bicyclo[2.2.1]heptane-2-carboxylic acid (3-trifluoromethyl-phenyl)-amide] reads 4240 nM. In the case of `CC(c1ccccc1C(F)(F)F)N1CC2CC1CN2C(=O)Nc1cccc(C(F)(F)F)c1` (stereo not shown) [Example 57, 5-[1-(2-Trifluoromethyl-phenyl)-ethyl]-2,5-diaza-bicyclo[2.2.1]heptane-2-carboxylic acid (3-trifluoromethyl-phenyl)-amide], the IC50 came to 5130 nM. The result for `Cc1ccccc1CC(C)N1CC2CC1CN2C(=O)Nc1ccc(Oc2ccccc2)cc1` (stereo not shown) [Example 58, 5-(1-Methyl-2-o-tolyl-ethyl)-2,5-diaza-bicyclo[2.2.1]heptane-2-carboxylic acid (4-phenoxy-phenyl)-amide] reads 230 nM.

For `Cc1ccccc1CC(C)N1CC2CC1CN2C(=O)Nc1ccc(C(F)(F)F)cc1` (stereo not shown) [Example 59, 5-(1-Methyl-2-o-tolyl-ethyl)-2,5-diaza-bicyclo[2.2.1]heptane-2-carboxylic acid (4-trifluoromethyl-phenyl)-amide], the IC50 was 750 nM. The result for `CC(c1ccccc1C(F)(F)F)N1CC2CC1CN2C(=O)Nc1cccc(Oc2ccccc2)c1` (stereo not shown) [Example 61, 5-[1-(2-Trifluoromethyl-phenyl)-ethyl]-2,5-diaza-bicyclo[2.2.1]heptane-2-carboxylic acid (3-phenoxy-phenyl)-amide] reads 4640 nM. The result for `CC(c1ccccc1C(F)(F)F)N1CC2CC1CN2C(=O)Nc1cccc(Oc2ccccc2)c1` (stereo not shown) [Example 63, 5-[1-(2-Trifluoromethyl-phenyl)-ethyl]-2,5-diaza-bicyclo[2.2.1]heptane-2-carboxylic acid (3-phenoxy-phenyl)-amide] reads 6100 nM; that for `Cc1cc(F)ccc1C(C)N1CC2CC1CN2C(=O)Nc1ccc(Oc2ccccc2)cc1` (stereo not shown) [Example 64, 5-[1-(4-Fluoro-2-methyl-phenyl)-ethyl]-2,5-diaza-bicyclo[2.2.1]heptane-2-carboxylic acid (4-phenoxy-phenyl)-amide], 270 nM. Under `Cc1cc(F)ccc1C(C)N1CC2CC1CN2C(=O)Nc1ccc(C(F)(F)F)cc1` (stereo not shown) [Example 65, 5-[1-(4-Fluoro-2-methyl-phenyl)-ethyl]-2,5-diaza-bicyclo[2.2.1]heptane-2-carboxylic acid (4-trifluoromethyl-phenyl)-amide] stands 600 nM. `Cc1ccccc1C(C)N1CC2CC1CN2C(=O)Nc1ccc(C(=O)c2ccccc2)cc1` (stereo not shown) [Example 66, 5-(1-o-Tolyl-ethyl)-2,5-diaza-bicyclo[2.2.1]heptane-2-carboxylic acid (4-benzoyl-phenyl)-amide]: the IC50 was 720 nM. The result for `Cc1ccccc1CC(C)N1CC2CC1CN2C(=O)Nc1cccc(C(F)(F)F)c1` (stereo not shown) [Example 67, 5-(1-Methyl-2-o-tolyl-ethyl)-2,5-diaza-bicyclo[2.2.1]heptane-2-carboxylic acid (3-trifluoromethyl-phenyl)-amide] reads 1220 nM; that for `Cc1ccccc1C(C)N1CC2CC1CN2C(=O)Nc1ccc(C(O)c2ccccc2)cc1` (stereo not shown) [Example 68, 5-(1-o-Tolyl-ethyl)-2,5-diaza-bicyclo[2.2.1]heptane-2-carboxylic acid [4-(hydroxy-phenyl-methyl)-phenyl]-amide], 6150 nM. The result for `Cc1ccccc1C(C)N1CC2CC1CN2C(=O)NC(C)c1ccc(F)cc1` (stereo not shown) [Example 69, 5-(1-o-Tolyl-ethyl)-2,5-diaza-bicyclo[2.2.1]heptane-2-carboxylic acid [1-(4-fluoro-phenyl)-ethyl]-amide] reads 17100 nM.

On to `Cc1ccccc1CC(C)N1CC2CC1CN2C(=O)NC(C)c1ccc(F)cc1` (stereo not shown) [Example 70, 5-(1-Methyl-2-o-tolyl-ethyl)-2,5-diaza-bicyclo[2.2.1]heptane-2-carboxylic acid [1-(4-fluoro-phenyl)-ethyl]-amide], for which the IC50 was 5080 nM. Regarding `Cc1cc(F)ccc1C(C)N1CC2CC1CN2C(=O)Nc1ccc(C(=O)c2ccccc2)cc1` (stereo not shown) [Example 71, 5-[1-(4-Fluoro-2-methyl-phenyl)-ethyl]-2,5-diaza-bicyclo[2.2.1]heptane-2-carboxylic acid (4-benzoyl-phenyl)-amide], the IC50 was determined as 2360 nM. In the case of `Cc1cc(F)ccc1C(C)N1CC2CC1CN2C(=O)Nc1ccc(C(=O)c2ccccc2)cc1` (stereo not shown) [Example 72, 5-[1-(4-Fluoro-2-methyl-phenyl)-ethyl]-2,5-diaza-bicyclo[2.2.1]heptane-2-carboxylic acid (4-benzoyl-phenyl)-amide], the IC50 was 2260 nM. Under `Cc1cc(F)ccc1C(C)N1CC2CC1CN2C(=O)Nc1ccc(Oc2ccc(F)cc2)cc1` (stereo not shown) [Example 75, 5-[1-(4-Fluoro-2-methyl-phenyl)-ethyl]-2,5-diaza-bicyclo[2.2.1]heptane-2-carboxylic acid [4-(4-fluoro-phenoxy)-phenyl]-amide] stands 570 nM.

The values above are taken from patent US20100204224A1, “AZACYCLIC COMPOUNDS AS INHIBITORS OF SENSORY NEURONE SPECIFIC SODIUM CHANNELS” (priority 2005, published 2010).
